{"source": "a melting point compilation (Tetko et al.; mined from patent text by program, amines drawn as free bases though some values may be those of a salt)"}
{"units": {"melting point": "°C"}}
{"smiles": "O=C(NC(=O)N1CCC(Cc2ccccc2)CC1)c1ccc(O)cc1", "melting point": 95}
{"smiles": "C=CCC1(C(=O)N2CCCCC2)c2ccccc2-c2ccccc21", "melting point": "64 to 66"}
{"smiles": "CCOC(=O)C(=Nc1ccc(OC)cc1)c1cccn1C", "melting point": "83 to 85"}
{"smiles": "COC(=O)CCC#Cc1nc(Cl)ccc1N", "melting point": "96 to 100"}
{"smiles": "NNC(=O)NCCSSc1ccccn1", "melting point": "105 to 107"}
{"smiles": "COc1ccc2sc(C(=O)O)nc2c1[N+](=O)[O-]", "melting point": "140 to 142"}
{"smiles": "COC(=O)CN(C)c1nc(-c2ccc(Cl)c(Cl)c2)cs1", "melting point": "88 to 89"}
{"smiles": "COCN1C(=O)C(NC(=O)Nc2cccc(C(=O)NS(C)(=O)=O)c2)CN(c2ccccc2)c2ccccc21", "note": "(stereo not drawn)", "melting point": "199 to 205"}
{"smiles": "CC(=O)C1C(=O)c2cccc(N)c2C1=O", "note": "(stereo not drawn)", "melting point": "126 to 128"}
{"smiles": "CCSCC(=O)c1cc(C(C)(C)C)c(O)c(C(C)(C)C)c1", "melting point": "133 to 134"}
{"smiles": "CCCCCC12CCC(c3ccc(C#N)c(F)c3)(CC1)CC2", "melting point": 63}
{"smiles": "CCC(C)(O)C#Cc1ccc(C(CC2CCCC2)C(=O)O)cc1", "note": "(stereo not drawn)", "melting point": "91 to 94"}
{"smiles": "O=C(OCC12CCCN(CC1)C2)c1c[nH]c2ccccc12", "note": "(stereo not drawn)", "melting point": "184 to 185"}
{"smiles": "COc1ccc(S(=O)(=O)Nc2cc(F)cc3c2Nc2ccc(O)cc2CO3)cc1", "melting point": "201 to 210"}
{"smiles": "COc1ccc(S(=O)(=O)Nc2nc(-c3cccc4ccccc34)cs2)cc1OC", "melting point": "132 to 133"}
{"smiles": "CCCCCCCN(CCCCCSc1nc2ccc([N+](=O)[O-])cc2[nH]1)C(=O)Nc1ccc(F)cc1F", "melting point": "120 to 122"}
{"smiles": "COC(=O)C(CC(C)C)NC(=O)C(CC(=O)c1ccccc1)Cc1ccccc1", "note": "(stereo not drawn)", "melting point": "81 to 83"}
{"smiles": "CCc1cc(Oc2ccc(S(C)(=O)=O)nc2)cc2cc(C3=NCC(CC(N)=O)S3)[nH]c12", "note": "(stereo not drawn)", "melting point": "190 to 191"}
{"smiles": "N#CC1=C(c2ccccc2)CN(c2ccccc2)C1=O", "melting point": "188 to 190"}
{"smiles": "CCOC(=O)c1cnc2sc(S(=O)(=O)Cc3ccccc3)nn2c1=O", "melting point": "200 to 203"}
{"smiles": "COC(=O)c1cc(C)sc1NC(=O)C(C)C", "melting point": "63 to 65"}
{"smiles": "Nc1ccc(OCCCN2C(=O)c3ccccc3C2=O)cc1[N+](=O)[O-]", "melting point": 164}
{"smiles": "Oc1ccc(C(F)(F)F)cc1-n1nc2ccccc2n1", "melting point": "119 to 120"}
{"smiles": "C[C@]1(COc2ccc(N3CCC(OCc4ccc(C(F)(F)F)cc4)CC3)cc2)Cn2cc([N+](=O)[O-])nc2O1", "melting point": "217 to 220"}
{"smiles": "O=C(O)/C=C/c1cc(OCC2CC2)nn1Cc1ccc(C(F)(F)F)cc1Cl", "melting point": "195 to 196"}
{"smiles": "COC(=O)C(Cc1ccc(OCc2ccccc2)cc1)NC(=O)c1cc2ccc(-c3ccc(Cl)cc3)cc2[nH]1", "note": "(stereo not drawn)", "melting point": "196 to 198"}
{"smiles": "COc1ccc(Nc2nc(Nc3ccc(OC)c(Cl)c3)nc(NC3CCCCCC3)n2)cc1Cl", "melting point": 183}
{"smiles": "N#Cc1cc(C(Cl)(Cl)Cl)ccc1Cl", "melting point": "66 to 68"}
{"smiles": "O=C1NC(=O)C(Nc2cccc(CCOCc3ccc4ccccc4n3)c2)S1", "note": "(stereo not drawn)", "melting point": "167 to 168"}
{"smiles": "Cc1cnnc2ccccc12", "melting point": "70 to 72"}
{"smiles": "CC(C)c1ccc(SCc2c(C(C)C)nc(C(C)C)c(CO)c2-c2ccc(F)cc2)cc1", "melting point": "108 to 109"}
{"smiles": "CCCCCCNC(=O)Nc1ccccc1C(=O)NC1CCN(C(c2ccccc2)c2ccccc2)CC1", "melting point": "192 to 194"}
{"smiles": "CS(=O)c1ccc(C2=C(c3ccccc3)C(=O)C(C)(C)O2)c(Cl)c1", "note": "(stereo not drawn)", "melting point": "135 to 136"}
{"smiles": "CC(=O)ON=C1Cc2ccccc2N(C(N)=O)c2ccccc21", "melting point": "176 to 177"}
{"smiles": "COc1ccc(Cl)cc1C(NC(C)=N)(c1ccccc1)c1ccccc1", "melting point": "143 to 145"}
{"smiles": "O=C(NCCc1ccccn1)Nc1cc(N2CC(c3ccccc3)CC2=O)ccn1", "note": "(stereo not drawn)", "melting point": "202 to 204"}
{"smiles": "CCOC(=O)c1c2n(c3c(F)c(N4CCC(NC(=O)C(F)(F)F)C4)c(F)cc3c1=O)C(C)S2", "note": "(stereo not drawn)", "melting point": "235 to 237"}
{"smiles": "N#Cc1nn(-c2c(Cl)cc(C(F)(F)F)cc2Cl)c(N)c1-c1ccc(Br)cc1", "melting point": "242 to 244"}
{"smiles": "Cc1sccc1C1=C(c2ccsc2C)C(F)(F)C(F)(F)C1(F)F", "melting point": 73.6}
{"smiles": "O=C(CCC1CCCCC1)NC1N=C(c2ccccc2)c2ccccc2N2CCN=C12", "note": "(stereo not drawn)", "melting point": "202 to 208"}
{"smiles": "CN1CCc2cc(O)c(O)c(Sc3cccs3)c2CC1", "melting point": "189 to 191"}
{"smiles": "CN(C)C1(c2ccccc2)CCC(NC(=S)NCCCc2ccccc2)CC1", "note": "(stereo not drawn)", "melting point": "75 to 80"}
{"smiles": "COC(=O)c1cc(N)c(NC(C)=O)c(Br)c1O", "melting point": "217 to 219"}
{"smiles": "Cc1ccc(-c2ccccc2C(=O)Nc2ccc(C(=O)N3CCc4sc(NC(=N)N)nc4-c4ccccc43)cc2)cc1", "melting point": "> 230"}
{"smiles": "CC(C)NC(=O)N1N=C(c2ccc([N+](=O)[O-])cc2)c2cc(Cl)ccc2CC1C", "note": "(stereo not drawn)", "melting point": "172 to 174"}
{"smiles": "CCOc1ccc2ccccc2c1C(=O)N[C@H](Cc1ccc(C(F)(F)F)cc1)[C@H](O)c1ccc(F)cc1", "note": "(racemic)", "melting point": "157 to 158"}
{"smiles": "CC(C)(C)OC(=O)N[C@@H](CC1CCCCC1)[C@@H](O)[C@@H](O)C1CC1", "melting point": "83 to 85"}
{"smiles": "O=C(O)Cn1cc(C2(O)CCCC2)nn1", "melting point": "124 to 126"}
{"smiles": "COc1cccc(-c2cn(-c3ccccc3)c3ncnc(N)c23)c1", "melting point": "159 to 160"}
{"smiles": "COc1cccc(Nc2ccnc(Nc3cc(OC)c(OC)c(OC)c3)n2)c1", "melting point": 78}
{"smiles": "Cc1c(C(=O)O)c[nH]c1C(=O)c1ccccc1", "melting point": "241 to 243"}
{"smiles": "CCOc1cc(OC)c(C(=O)C=Cc2ccc(OC)cc2)c(OP(=O)(O)O)c1", "melting point": "85 to 88"}
{"smiles": "c1ccc(CN2CC3(COc4cc5c(cc43)CCO5)c3c(-c4cccnc4)cccc32)nc1", "note": "(stereo not drawn)", "melting point": "> 200"}
{"smiles": "CCC(Cc1ccc(OC)c(S(N)(=O)=O)c1)NC(=O)C(F)(F)F", "note": "(stereo not drawn)", "melting point": "189 to 192"}
{"smiles": "CC(C)(C)c1cc(CCc2ccccc2NC(=O)NC2CCN(Cc3ccc(C#N)cc3)CC2)cc(C(C)(C)C)c1O", "melting point": "197 to 198"}
{"smiles": "CSC1C(=O)Nc2ccc(Oc3ccc(F)c(C(F)(F)F)c3Cl)cc21", "note": "(stereo not drawn)", "melting point": "137 to 142"}
{"smiles": "CCOc1ccc(NS(=O)(=O)c2cccc3c(N(C)C)cccc23)nn1", "melting point": "194 to 198"}
{"smiles": "O=C(CS)Nc1ccc(C(=O)NCCO)cc1", "melting point": "184 to 186"}
{"smiles": "O=C1c2cccc3cc4ccccc4c(c23)C(=O)N1CCNCCCCCNCCN1C(=O)c2cccc3cc4ccccc4c(c23)C1=O", "melting point": 122}
{"smiles": "COC(=O)CCCCCCCCCCCCc1ccccc1", "melting point": "30.5 to 31.5"}
{"smiles": "CSc1ccc(O)nn1", "melting point": 119}
{"smiles": "COc1cc2c(cc1Nc1ncc(Cl)c(Nc3ccccc3S(=O)(=O)N(C)C)n1)CCN(CC(C)O)CC2", "note": "(stereo not drawn)", "melting point": "183 to 185"}
{"smiles": "COC(=O)C(=O)c1ccc(OCc2ccc3ccccc3c2)cc1", "melting point": "101 to 102"}
{"smiles": "Cc1cc(CC(=O)OC(C)(C)C)ccc1NC(=O)Nc1ccccc1F", "melting point": "89 to 91"}
{"smiles": "CC(C)Cn1c(=O)n(C)c(=O)c2c(OCCCO)c(Cc3cccnc3)sc21", "melting point": "111 to 112"}
{"smiles": "Cc1cc(Nc2ccnc(Nc3ccc(S(=O)(=O)N(C)C4CCC(F)(F)CC4)cc3)n2)ccc1F", "melting point": "164 to 165"}
{"smiles": "Cc1cc(C)c(-c2nc(-c3ccc(O)cc3O)nc(-c3ccc(O)cc3O)n2)c(C)c1", "melting point": "230 to 234"}
{"smiles": "Cc1occc1C(=O)N(O)C1CCCCC1", "melting point": "108 to 110"}
{"smiles": "COC(=O)c1ccc(SC)c(N)c1", "melting point": "63 to 65"}
{"smiles": "CCOc1nn(Cc2ccc(OCc3cn(-c4ccccn4)nc3C)cc2)cc1CCC(=O)O", "melting point": "126 to 127"}
{"smiles": "COCCNC(N)=Nc1ccccc1N1CCCCC1", "melting point": "218 to 220"}
{"smiles": "CCCNC(=O)C(C)Cc1ccc2cccc(Cc3ccc(C(=O)O)cc3OC)c2c1", "note": "(stereo not drawn)", "melting point": "199 to 200"}
{"smiles": "COc1cc(C)c2ccc(N3C(=O)C4=C(SCCS4)C3OC(=O)N3CCN(C)CC3)nc2n1", "note": "(stereo not drawn)", "melting point": "232 to 234"}
{"smiles": "CCCC1Sc2ccc(F)cc2C=C1c1ccc2c(c1)NC(=O)CO2", "note": "(stereo not drawn)", "melting point": "161 to 162"}
{"smiles": "CCOC(=O)C1C(=O)N(C)C(=S)N(C)C1=O", "melting point": "90 to 93"}
{"smiles": "c1ccc(C(Nn2cncn2)c2ccccc2)cc1", "melting point": "142 to 145"}
{"smiles": "COc1ccc(CN(C)CCCCc2ccc(NC(=O)c3cccc4c(=O)cc(-c5ccccc5)[nH]c34)cc2)cc1OC", "melting point": 171}
{"smiles": "C=CCONC(CCC)=C1C(=O)CC(CCC2OCCCO2)CC1=O", "note": "(stereo not drawn)", "melting point": "50 to 52"}
{"smiles": "O=C(O)COC1=C(Cc2ccc3c(Cl)cccc3c2)C(=O)CCC1", "melting point": "236 to 238"}
{"smiles": "Cc1cccc(OC2=NS(=O)(=O)N=C(Oc3cccc(C)c3)N2C)c1", "melting point": "221 to 223"}
{"smiles": "C=C1CCc2onc(-c3ccccc3)c2C1=O", "melting point": "97 to 99"}
{"smiles": "Cc1c(C)c([N+](=O)[O-])c(C)c2c1OC(C)(C)C2c1ccccc1", "note": "(stereo not drawn)", "melting point": "155 to 156"}
{"smiles": "O=CNCc1ccc2[nH]cc(CCN3C(=O)c4ccccc4C3=O)c2c1", "melting point": 45}
{"smiles": "CN=c1nc(N)nc2sc3cc(OC)ccc3n12", "melting point": "208 to 209"}
{"smiles": "CCCCc1nc2ccc(NC(=O)C3CCCCC3C(=O)O)cc2n1Cc1ccc(-c2ccccc2C(=O)O)cc1", "note": "(stereo not drawn)", "melting point": "186 to 188"}
{"smiles": "COC(=O)C=Cc1cc(O)c(O)c([N+](=O)[O-])c1", "melting point": "186 to 187"}
{"smiles": "CCc1cc2c(Nc3nnc(C)s3)ncnc2s1", "melting point": "277 to 280"}
{"smiles": "CN1C(=O)C(C2=COc3ccccc3O2)=C(c2c[nH]c3ccc(F)cc23)C1=O", "melting point": 229}
{"smiles": "O=C(NCCO)c1cccc(-c2ccc3c(n2)N(Cc2ccc(Cl)cc2Cl)CC3)c1", "melting point": "142 to 143"}
{"smiles": "CCCC(=O)c1cnc2c(OCCCN3CCCCC3)cccc2c1Nc1ccccc1C", "melting point": "76 to 78"}
{"smiles": "CC1CCc2c(c3cc(Br)ccc3n2C(=O)OC(C)(C)C)C1", "note": "(stereo not drawn)", "melting point": 122}
{"smiles": "Cc1ncc(CN2CCN(c3ccccc3C)CC2)c(N)n1", "melting point": "189 to 190"}
{"smiles": "CCOC(=O)c1ccc(N(N)C(=O)OC(C)(C)C)cc1", "melting point": 74}
{"smiles": "CCCCN(Cc1ccc2cc(O)ccc2c1)C(=O)c1c(C)oc2ccccc12", "melting point": "126 to 128"}
{"smiles": "O=C(CN1CCOCC1)N1CCN(c2ccc(O)cc2)CC1", "melting point": 197}
{"smiles": "CC(Cl)(Cl)C(Cl)(Cl)c1cccc([N+](=O)[O-])c1", "melting point": "75.5 to 77"}
{"smiles": "COC(=O)CC(C(=O)OC)N1CCC(Nc2ncc3ncnc(Nc4cccc(Br)c4)c3n2)CC1", "note": "(stereo not drawn)", "melting point": 193}
{"smiles": "COc1cccc2cc(CN(C)CCNC(=O)C34CC5CC(CC(C5)C3)C4)oc12", "melting point": "156 to 158"}
